Data reported in the NIST ThermoML archive (doi:10.1021/je200673a).
Numbers after ± are expanded uncertainties.

Key:
[1] = Crystal; Adiabatic calorimetry
[2] = Molar enthalpy of transition or fusion; conditions: Crystal; Adiabatic calorimetry

## C(#Cc1ccccc1)c1ccccc1 [1,2-diphenylethyne]
[1]
  Triple point temperature: 332.02 ± 0.05 K
[2]
  Molar enthalpy of transition or fusion: 5.029 ± 0.0454 kcal/mol
